Laboratory results: patent publication US7683168B2, “Compositions of novel opioid compounds and method of use thereof” (priority 2005, dated 2010)

Experiments:
[1] = tested on: seizure-like convulsions in mice; assay: mouse seizure-like convulsions; type: in vivo
Procedure: Mouse Seizure-Like Convulsions and antinociception: The central (CNS) effects of the compound were tested with central delta receptor mediated seizure-like convulsions and central mu opioid receptor mediated antinociceptive effects in mice. Male CD-1 mice (Charles River, Raleigh, N.C.) weighing 20-25 g were used to determine the seizure-like convulsion and antinociception activities for compounds.
They were then observed for seizure-like convulsions for one hour following the treatment. A seizure-like event was recorded if a mouse had uncontrollable clonic (or tonic/clonic) muscle movements that encompassed its entire body, usually followed by a brief cataleptic period. Catalepsy was determined by placing the animal's front paws on a horizontal bar held 2-3 inches from the cage floor. Cataleptic animals made no attempt to remove their paws.

guinea pig ileum = assay: electrically stimulated guinea pig ileum (GPI) ED50; type: cell-based; conditions: Cavia porcellus; ED50, inhibition of electrically induced contractions
Procedure: Further the compounds of formula (1) were evaluated for in vitro opioid receptor activity in various receptor systems, including mouse vas deferens (Mouse Vas Deferens ED50), and guinea pig ileum (Guinea Pig Ileum ED50). The assay procedures used for such determinations of receptor activity are set out below.
Intact ileums (about 3 cm length) were removed from guinea pig and suspended with 1 g of tension in a bath chamber as described for the vasa deferentia. The ileums were stimulated with electrical square-wave pulses of 0.1-Hz, 1 msec pulse duration at supramaximal voltage.
The ED50 values were extrapolated from curves showing the dose concentration plotted against the response (J. A. H. Lord, A. A. Waterfield, J. Hughes, H. W. Kosterlitz, Nature 267, 495, (1977)).

mouse vas deferens = assay: electrically stimulated mouse vas deferens (MVD) ED50; type: cell-based; conditions: ED50, inhibition of electrically induced contractions
human mu opioid receptor = molecular target: T1, human mu opioid receptor (Homo sapiens, UniProt P35372); assay: radioligand binding, human mu opioid receptor, CHO cell membranes; conditions: species not given, read-out: μ
T1 construct: purchased Perkin Elmer, Boston, Mass; 6110535; host or cells: CHO cells
T1 sequence (P35372 whole entry): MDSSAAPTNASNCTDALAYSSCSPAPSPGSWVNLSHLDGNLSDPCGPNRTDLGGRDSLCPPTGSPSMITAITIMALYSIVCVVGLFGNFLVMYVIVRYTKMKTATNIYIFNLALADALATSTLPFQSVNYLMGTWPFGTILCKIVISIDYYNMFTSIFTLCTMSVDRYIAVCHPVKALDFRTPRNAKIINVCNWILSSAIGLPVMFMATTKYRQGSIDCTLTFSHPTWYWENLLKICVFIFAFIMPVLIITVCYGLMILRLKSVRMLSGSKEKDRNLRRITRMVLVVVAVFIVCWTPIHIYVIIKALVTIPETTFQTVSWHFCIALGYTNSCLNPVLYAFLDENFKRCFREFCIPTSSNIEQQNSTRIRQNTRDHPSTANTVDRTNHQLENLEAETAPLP

human delta receptor = molecular target: T2, human delta receptor (Homo sapiens, UniProt P41143); assay: radioligand binding, human delta receptor, HEK-293 cell membranes; conditions: cell not marked (rat), species not given, read-out: δ
T2 construct: purchased Perkin Elmer, Boston, Mass; 6110549; host or cells: HEK-293 cells
T2 sequence (P41143 whole entry): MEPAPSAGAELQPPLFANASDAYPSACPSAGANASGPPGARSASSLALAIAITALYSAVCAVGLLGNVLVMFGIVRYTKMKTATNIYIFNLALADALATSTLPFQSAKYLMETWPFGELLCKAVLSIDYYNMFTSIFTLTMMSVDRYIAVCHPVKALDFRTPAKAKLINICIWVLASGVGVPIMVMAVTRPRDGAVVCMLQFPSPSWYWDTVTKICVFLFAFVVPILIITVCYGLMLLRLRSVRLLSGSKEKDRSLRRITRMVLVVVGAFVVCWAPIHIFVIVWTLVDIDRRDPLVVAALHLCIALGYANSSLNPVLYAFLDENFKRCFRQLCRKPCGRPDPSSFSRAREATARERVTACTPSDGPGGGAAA

Compound	Seiz. ([1]; 10 mg/kg IV) [% 10 mg/kg IV]	EC50 (guinea pig ileum) [nM]	EC50 (mouse vas deferens) [nM]	Ki (human mu opioid receptor) [nM]	Ki (human delta receptor) [nM]	Seiz. ([1]; 20 mg/kg IV)	Seiz. ([1]; 200 mg/kg PO & SC)
CCOC(=O)CN1CCCN(C(=O)c2cccc(C(c3cccc(O)c3)N3C[C@@H](C)N(Cc4ccccc4)C[C@@H]3C)c2)CC1 (stereo partly drawn)	60	526	2.4	0.56	0.21		
C[C@@H]1CN(C(c2cccc(O)c2)c2cccc(C(=O)N3CCCN(CC(=O)O)CC3)c2)[C@@H](C)CN1Cc1ccccc1 (stereo partly drawn)		> 1000	1.4	1.27		0% 20 mg/kg IV	
CCOC(=O)CN1CCCN(C(=O)c2cccc(C(c3cccc(O)c3)N3C[C@@H](C)N(Cc4cccc(F)c4)C[C@@H]3C)c2)CC1 (stereo partly drawn)	20	761	13.4	2.6	5.4		
CCOC(=O)CCN1CCCN(C(=O)c2cccc([C@H](c3cccc(O)c3)N3C[C@@H](C)N(Cc4cccc(F)c4)C[C@@H]3C)c2)CC1	20	978	17.1	4.8	71		
C[C@@H]1CN([C@@H](c2cccc(O)c2)c2cccc(C(=O)N3CCCN(CCC(=O)O)CC3)c2)[C@@H](C)CN1Cc1cccc(F)c1		154	4	7.7	4.17	0% 200 mg/kg PO & SC 0% 20 mg/kg IV	0% 200 mg/kg PO & SC 0% 20 mg/kg IV
CCOC(=O)CCN1CCCN(C(=O)c2cccc([C@H](c3cccc(O)c3)N3C[C@@H](C)N(CC4CC4)C[C@@H]3C)c2)CC1	0	567	22.6	2.9	121		
C[C@@H]1CN([C@@H](c2cccc(O)c2)c2cccc(C(=O)N3CCCN(CCC(=O)O)CC3)c2)[C@@H](C)CN1CC1CC1		664	66	22.3	69	0% 20 mg/kg IV	
C[C@@H]1CN(C(c2cccc(O)c2)c2cccc(C(=O)N3CCCN(CCCC(=O)O)CC3)c2)[C@@H](C)CN1Cc1ccccc1 (stereo partly drawn)	0	159	1.07	1.9	14.8		
CCOC(=O)CCCN1CCCN(C(=O)c2cccc(C(c3cccc(O)c3)N3C[C@@H](C)N(Cc4cccc(F)c4)C[C@@H]3C)c2)CC1 (stereo partly drawn)		1500	30	2.3	1.7		
C[C@@H]1CN(C(c2cccc(O)c2)c2cccc(C(=O)N3CCCN(CCCCCC(=O)O)CC3)c2)[C@@H](C)CN1Cc1ccccc1 (stereo partly drawn)		303	3.26	3.9	2.8		
C=CCN1C[C@H](C)N(C(c2cccc(O)c2)c2cccc(C(=O)N3CCCN(Cc4ccc(C(=O)O)cc4)CC3)c2)C[C@H]1C (stereo partly drawn)	0	150	3.1	4	0.39		
CCOC(=O)CN1CCN(C(=O)c2cccc([C@H](c3cccc(O)c3)N3C[C@@H](C)N(Cc4ccccc4)C[C@@H]3C)c2)CC1 [Example 68, (4-{3-[(R)-((2S,5R)-4-Benzyl-2,5-dimethyl-piperazin-1-yl)-(3-hydroxy-phenyl)-methyl]-benzoyl}-piperazin-1-yl)-acetic acid ethyl ester]	80	526	1.91	1.22	0.73		
C[C@@H]1CN([C@@H](c2cccc(O)c2)c2cccc(C(=O)N3CCN(CC(=O)O)CC3)c2)[C@@H](C)CN1Cc1ccccc1 [Example 69, (4-{3-[(R)-((2S,5R)-4-Benzyl-2,5-dimethyl-piperazin-1-yl)-(3-hydroxy-phenyl)-methyl]-benzoyl}-piperazin-1-yl)-acetic acid]	0	47.8	0.48	1.36	0.54		
C=CCN1C[C@H](C)N([C@@H](c2cccc(O)c2)c2cccc(C(=O)N3CCN(CCCC(=O)O)CC3)c2)C[C@H]1C [Example 75]	0	178	4.1	10.8	25.3		
C[C@@H]1CN([C@@H](c2cccc(O)c2)c2cccc(C(=O)N3CCN(CCCC(=O)O)CC3)c2)[C@@H](C)CN1Cc1ccccc1 [Example 80, 4-(4-{3-[(R)-((2S,5R)-4-Benzyl-2,5-dimethyl-piperazin-1-yl)-(3-hydroxy-phenyl)-methyl]-benzoyl}-piperazin-1-yl)-butyric acid]	0	104	0.34	5.3	5.7		
C=CCN1C[C@H](C)N([C@@H](c2cccc(O)c2)c2cccc(C(=O)N3CCN(CCCCC(=O)O)CC3)c2)C[C@H]1C [Example 84, 5-(4-{3-[(R)-((2S,5R)-4-Allyl-2,5-dimethyl-piperazin-1-yl)-(3-hydroxy-phenyl)-methyl]-benzoyl}-piperazin-1-yl)-pentanoic acid]	0	209	3.76	57.3	13.4		
C[C@@H]1CN([C@@H](c2cccc(O)c2)c2cccc(C(=O)N3CCN(CCCCCC(=O)O)CC3)c2)[C@@H](C)CN1Cc1ccccc1 [Example 97, 6-(4-{3-[(R)-((2S,5R)-4-Benzyl-2,5-dimethyl-piperazin-1-yl)-(3-hydroxy-phenyl)-methyl]-benzoyl}-piperazin-1-yl)-hexanoic acid]	0	445	2.5		1.2		
C=CCN1C[C@H](C)N([C@@H](c2cccc(O)c2)c2cccc(C(=O)N3CCC(C(=O)O)CC3)c2)C[C@H]1C [Example 120, 1-{3-[(R)-((2S,5R)-4-Allyl-2,5-dimethyl-piperazin-1-yl)-(3-hydroxy-phenyl)-methyl]-benzoyl}-piperidine-4-carboxylic acid]	10	48.6	2.49	4.1			
C[C@@H]1CN([C@@H](c2cccc(O)c2)c2cccc(C(=O)N3CCC(C(=O)O)CC3)c2)[C@@H](C)CN1Cc1ccccc1 [Example 123, 1-{3-[(R)-((2S,5R)-4-Benzyl-2,5-dimethyl-piperazin-1-yl)-(3-hydroxy-phenyl)-methyl]-benzoyl}-piperidine-4-carboxylic acid]	0	17.8	0.48				
C[C@@H]1CN([C@@H](c2cccc(O)c2)c2cccc(C(=O)N3CCC(C(=O)O)CC3)c2)[C@@H](C)CN1Cc1cccc(F)c1 [Example 125, 1-{3-[(R)-[(2S,5R)-4-(3-Fluoro-benzyl)-2,5-dimethyl-piperazin-1-yl]-(3-hydroxyphenyl)-methyl]-benzoyl}-piperidine-4-carboxylic acid]	0	46.7	1.42				
C[C@@H]1CN([C@@H](c2cccc(O)c2)c2cccc(C(=O)N3CCC(C(=O)O)CC3)c2)[C@@H](C)CN1CC1CC1 [Example 127, 1-{3-[(R)-((1S,4R)-4-Cyclopropylmethyl-2,5-dimethyl-piperazin-1-yl)-(3-hydroxy-phenyl)-methyl]-benzoyl}-piperidine-4-carboxylic acid]	0	242	11.5		4.35		
